{"source": "patent US10016430B2", "about": "“1-[2-(aminomethyl)benzyl]-2-thioxo-1,2,3,5-tetrahydro-4H-pyrrolo[3,2-d]pyrimidin-4-ones as inhibitors of myeloperoxidase” (AstraZeneca AB, priority 2014, dated 2018)", "target": "activated MPO (Homo sapiens (Human), UniProt P05164)", "sequence (P05164 49-745)": "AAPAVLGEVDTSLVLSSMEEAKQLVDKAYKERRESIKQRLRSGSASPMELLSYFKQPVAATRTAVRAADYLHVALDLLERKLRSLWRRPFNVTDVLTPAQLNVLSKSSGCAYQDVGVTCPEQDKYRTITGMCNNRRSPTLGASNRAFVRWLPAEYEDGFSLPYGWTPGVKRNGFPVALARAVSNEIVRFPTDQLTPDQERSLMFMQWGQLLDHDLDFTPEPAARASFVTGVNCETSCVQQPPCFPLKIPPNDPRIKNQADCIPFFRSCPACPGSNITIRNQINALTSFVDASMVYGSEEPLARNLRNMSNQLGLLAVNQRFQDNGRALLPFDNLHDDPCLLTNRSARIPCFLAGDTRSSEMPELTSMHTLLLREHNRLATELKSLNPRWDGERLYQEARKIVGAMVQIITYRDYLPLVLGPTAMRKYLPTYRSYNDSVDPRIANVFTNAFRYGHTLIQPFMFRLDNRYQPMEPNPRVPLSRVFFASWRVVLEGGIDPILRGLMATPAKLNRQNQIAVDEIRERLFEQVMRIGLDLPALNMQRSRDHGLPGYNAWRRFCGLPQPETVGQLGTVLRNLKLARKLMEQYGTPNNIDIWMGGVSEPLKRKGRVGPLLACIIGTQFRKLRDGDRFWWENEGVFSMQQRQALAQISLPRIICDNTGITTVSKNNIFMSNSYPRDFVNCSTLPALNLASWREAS", "assay": "Urate production by activated MPO incubated with xanthine, LC-MS", "format": "biochemical", "conditions": "activated MPO incubated with xanthine and titrated compound for 80 min, FIG. 3", "source_text": "The dotted line represents the urate formed in the presence of unactivated MPO.\nWe postulate that tissue hypoxia, the degree of which will be determined by the degree of inflammation and vascular function, has impact on plasma urate concentration. Myocardial ischemia results in accelerated loss of ATP and a corresponding buildup of urate levels in rat hearts (Am. J. Physiol. Heart Circ. Physiol., 2004, 286, H677-H684; J. Biol. Chem., 1995, 270, 18797-18803). Furthermore, increased myocardial production of urate contributes to systemic urate levels and correlates to NYHA class in heart failure patients (Circ. J., 2006, 70, 1006-1011).", "data": [{"smiles": "C[C@@H](N)c1cc(Cl)ccc1Cn1c(=S)[nH]c(=O)c2[nH]ccc21", "note": "[Example 3, 1-{2-[(1R)-1-Aminoethyl]-4-chlorobenzyl}-2-thioxo-1,2,3,5-tetrahydro-4H-pyrrolo[3,2-d]pyrimidin-4-one]", "values": [{"measurement": "Inhibition of urate production by activated MPO", "value": "concentration-dependently inhibited"}]}]}
